Laboratory results published in US20240335439A1, “USE OF AND METHOD FOR TELAPREVIR IN PREPARATION OF DRUG FOR TREATING AN ISCHEMIA/REPERFUSION INJURY AND CYTOPROTECTIVE DRUG” (THE THIRD XIANGYA HOSPITAL OF CENTRAL SOUTH UNIVERSITY, priority 2021, published 2024).

Test system: SH-SY5Y nerve cells
Experiment: NMDA induced nerve cell injury model of SH-SY5Y cells, MTS viability
Assay type: cell-based
Details: 1 mM NMDA 30 minutes, then 24 h culture; telaprevir 1, 5, 10 μM; FIG. 5C
Description: SH-SY5Y nerve cells were purchased from the Xiangya Cell Bank of Central South University.
Cell culture method: Following a conventional cell culture method, the above SH-SY5Y nerve cells were cultured in an RPMI 1640 medium (containing 20% of fetal bovine serum). When the cells fused and grew to 80-90%, the cells were digested with a trypsin. After the cells shrank and became round and the intercellular space was obvious, the digestion was immediately terminated with a medium, the cells were dispersed and blown evenly into a single suspension state, passaged in bottles, and cultured in a 37° C. cell incubator containing 5% of CO2.
The SH-SY5Y cells at the fusion rate of 80-90% or more can be seeded on plates. […]
Cell viability was detected by MTS.
The measurement followed the operating instructions of a commercially available MTS kit (Promega (Beijing) Biotech Co., Ltd.). […] The absorbance of the cells at 490 nm was measured by enzyme-linked immunosorbent assay (the absorbance was controlled at 0.7-1.2), where the absorbance value reflected relative cell viability. Calculation: cell viability (%)=absorbance of the drug group/absorbance of the control group×100%. When the absorbance value of each group was calculated, the absorbance value of the background blank control group was first subtracted.

CCC[C@H](NC(=O)[C@@H]1[C@H]2CCC[C@H]2CN1C(=O)[C@@H](NC(=O)[C@@H](NC(=O)c1cnccn1)C1CCCCC1)C(C)(C)C)C(=O)C(=O)NC1CC1 [telaprevir]
cell viability (MTS) of NMDA treated SH-SY5Y cells: significantly inhibit a decrease
